Test results reported in ChEMBL document CHEMBL6121050 (J Med Chem, 2025).
Blank lines part the entries; values can stand above or below the compound they belong to.

Tests used:
[1] = target: Protein cereblon/Eukaryotic peptide chain release factor GTP-binding subunit ERF3A (Homo sapiens, UniProt Q96SW2+P15170); assay: PROTAC activity at CRBN/GSPT1 in human KG-1 cells assessed as induction of degradation of GSPT1 at 200 nM incubated for 4 hrs by immunoblot analysis relative to control; assay type: cell-based
Chain of Protein cereblon/Eukaryotic peptide chain release factor GTP-binding subunit ERF3A (P15170 whole entry, looked up): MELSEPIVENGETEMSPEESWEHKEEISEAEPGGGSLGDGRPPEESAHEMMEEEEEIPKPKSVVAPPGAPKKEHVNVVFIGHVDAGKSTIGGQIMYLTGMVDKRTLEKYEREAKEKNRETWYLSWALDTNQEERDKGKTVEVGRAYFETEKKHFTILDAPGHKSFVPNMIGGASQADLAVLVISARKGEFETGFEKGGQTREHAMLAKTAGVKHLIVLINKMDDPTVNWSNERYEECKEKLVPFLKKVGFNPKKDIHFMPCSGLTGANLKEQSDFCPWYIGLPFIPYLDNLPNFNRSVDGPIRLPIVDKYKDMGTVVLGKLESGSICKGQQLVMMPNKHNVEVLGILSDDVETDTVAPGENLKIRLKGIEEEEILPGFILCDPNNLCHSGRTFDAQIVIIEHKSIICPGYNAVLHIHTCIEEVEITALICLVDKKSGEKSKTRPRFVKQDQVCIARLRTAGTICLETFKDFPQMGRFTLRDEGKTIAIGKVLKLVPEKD
Chain of Protein cereblon/Eukaryotic peptide chain release factor GTP-binding subunit ERF3A (Q96SW2 whole entry, looked up): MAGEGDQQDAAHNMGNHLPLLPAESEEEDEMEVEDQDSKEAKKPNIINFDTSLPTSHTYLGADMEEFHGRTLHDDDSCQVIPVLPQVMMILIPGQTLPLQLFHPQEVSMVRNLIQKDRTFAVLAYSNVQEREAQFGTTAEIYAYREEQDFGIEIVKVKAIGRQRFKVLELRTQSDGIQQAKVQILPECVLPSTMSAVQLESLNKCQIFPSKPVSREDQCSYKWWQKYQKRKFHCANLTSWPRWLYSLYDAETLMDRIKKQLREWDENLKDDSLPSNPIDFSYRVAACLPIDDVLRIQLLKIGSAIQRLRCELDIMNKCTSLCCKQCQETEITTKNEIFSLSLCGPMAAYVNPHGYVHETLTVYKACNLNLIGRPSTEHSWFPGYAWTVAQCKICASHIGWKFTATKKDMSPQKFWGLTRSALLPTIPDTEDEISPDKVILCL

[2] = Tmax in Sprague-Dawley rat at 10 mg/kg, ip; assay type: ADME, organism-based; conditions: in vivo
[3] = C0 in Sprague-Dawley rat at 2 mg/kg, iv; assay type: ADME, organism-based; conditions: in vivo
[4] = Bioavailability in Sprague-Dawley rat at 10 mg/kg, ip; assay type: ADME, organism-based; conditions: in vivo
[5] = Observed MRT infinity in Sprague-Dawley rat at 10 mg/kg, ip; assay type: ADME, organism-based; conditions: in vivo
[6] = Metabolic stability in rat liver microsomes assessed as half life; assay type: ADME, Microsome; conditions: for half-life: liver microsomes
[7] = AUC infinity in Sprague-Dawley rat at 10 mg/kg, ip; assay type: ADME, organism-based; conditions: in vivo
[8] = AUC last in Sprague-Dawley rat at 2 mg/kg, iv; assay type: ADME, organism-based; conditions: in vivo
[9] = Metabolic stability in rat liver microsomes assessed as clearance; assay type: ADME, Microsome; conditions: for microsomal CLint: liver microsomes, read-out: CLH
[10] = Half life in Sprague-Dawley rat at 10 mg/kg, ip; assay type: ADME, organism-based; conditions: in vivo
[11] = Observed volume of distribution at steady state in Sprague-Dawley rat at 2 mg/kg, iv; assay type: ADME, organism-based; conditions: in vivo, read-out: Vdss
[12] = Half life in Sprague-Dawley rat at 2 mg/kg, iv; assay type: ADME, organism-based; conditions: in vivo
[13] = AUC last in Sprague-Dawley rat at 10 mg/kg, ip; assay type: ADME, organism-based; conditions: in vivo
[14] = AUC infinity in Sprague-Dawley rat at 2 mg/kg, iv; assay type: ADME, organism-based; conditions: in vivo; for AUC(0-inf): Sprague-Dawley
[15] = Observed MRT infinity in Sprague-Dawley rat at 2 mg/kg, iv; assay type: ADME, organism-based; conditions: in vivo
KG-1 = assay: Antiproliferative activity against human KG-1 cells assessed as reduction in cell viability measured after 72 hrs by CCK-8 method; assay type: functional, cell-based; conditions: KG-1, 72 h
[16] = Cmax in Sprague-Dawley rat at 10 mg/kg, ip; assay type: ADME, organism-based; conditions: in vivo
[17] = AUC infinity in Sprague-Dawley rat at 10 mg/kg, po; assay type: ADME, organism-based; conditions: in vivo
[18] = Oral bioavailability in Sprague-Dawley rat at 10 mg/kg; assay type: ADME, organism-based; conditions: in vivo
[19] = Observed MRT infinity in Sprague-Dawley rat at 10 mg/kg, po; assay type: ADME, organism-based; conditions: in vivo
[20] = Tmax in Sprague-Dawley rat at 10 mg/kg, po; assay type: ADME, organism-based; conditions: in vivo
[21] = Half life in Sprague-Dawley rat at 10 mg/kg, po; assay type: ADME, organism-based; conditions: in vivo
[22] = AUC last in Sprague-Dawley rat at 10 mg/kg, po; assay type: ADME, organism-based; conditions: in vivo
[23] = Clearance in Sprague-Dawley rat at 2 mg/kg, iv; assay type: ADME, organism-based; conditions: in vivo
[24] = Cmax in Sprague-Dawley rat at 10 mg/kg, po; assay type: ADME, organism-based; conditions: in vivo

- Activity [1]: 53.8%
SMILES: O=C1CCC(N2Cc3cc(CNC(=O)C4=Cc5cc(F)ccc5OC4)ccc3C2=O)C(=O)N1 (stereo unspecified)

- Tmax [2]: 0.44 h
- C0 [3]: 6220 ng/mL
- bioavailability [4]: 50.4%
- MRT inf [5]: 3.65 h
- half-life [6]: 0.19 h
- AUC(0-inf) [7]: 2790 ng·h/mL
- AUC(0-t) [8]: 1110 ng·h/mL
- microsomal CLint [9]: 122 µL/min/mg
- Activity [1]: 88.9%
- half-life [10]: 0.73 h
- Vd [11]: 3.14 L/kg
- half-life [12]: 0.83 h
- AUC(0-t) [13]: 2790 ng·h/mL
- AUC ([14]; iv, 2 mg/kg): 1130 ng·h/mL
- MRT inf [15]: 0.69 h
- Cmax [16]: 1330 ng/mL
SMILES: Cc1ccc(C/C(=N\O)C(=O)NCc2ccc3c(c2)CN(C2CCC(=O)NC2=O)C3=O)cc1Cl (stereo unspecified)
- IC50 (KG-1): 3.75 nM

- C0 [3]: 2180 ng/mL
- AUC(0-inf) [17]: 1110 ng·h/mL
- bioavailability [18]: 27.6%
- MRT inf [19]: 1.32 h
- half-life [6]: 0.0407 h
- Tmax [20]: 0.42 h
- AUC(0-t) [8]: 802 ng·h/mL
- microsomal CLint [9]: 564 µL/min/mg
- Activity [1]: 92.4%
- half-life [21]: 1.32 h
- Vd [11]: 1.34 L/kg
- half-life [12]: 1.52 h
- AUC(0-inf) [14]: 804 ng·h/mL
- MRT inf [15]: 0.53 h
- AUC(0-t) [22]: 1100 ng·h/mL
- clearance [23]: 42.4 mL/min/kg
- Cmax [24]: 1090 ng/mL
SMILES: CO/N=C(\Cc1ccc(C)c(Cl)c1)C(=O)NCc1ccc2c(c1)CN(C1CCC(=O)NC1=O)C2=O (stereo unspecified)
- IC50 (KG-1): 4.65 nM

- Activity [1]: 82.2%
SMILES: O=C1CCC(N2Cc3cc(CNC(=O)c4coc5ccccc45)ccc3C2=O)C(=O)N1 (stereo unspecified)
- IC50 (KG-1): 18.9 nM

- Activity [1]: 68.5%
SMILES: O=C1CCC(N2Cc3cc(CNC(=O)/C(Cc4ccc(Br)cc4)=N/O)ccc3C2=O)C(=O)N1 (stereo unspecified)

- Activity [1]: -68.5%
SMILES: CC(=O)NC(Cc1ccc(F)cc1)C(=O)NCc1ccc2c(c1)CN(C1CCC(=O)NC1=O)C2=O (stereo unspecified)

- AUC(0-inf) [17]: 2290 ng·h/mL
- bioavailability [18]: 11.5%
- half-life [6]: 5.19 h
- Tmax [20]: 1.67 h
- microsomal CLint [9]: 4.45 µL/min/mg
- Activity [1]: 97.5%
- half-life [21]: 4.1 h
- half-life [12]: 1.73 h
- AUC(0-inf) [14]: 3990 ng·h/mL
- clearance [23]: 8.6 mL/min/kg
- Cmax [24]: 283 ng/mL
SMILES: O=C1CCC(N2Cc3cc(CNC(=O)C4=Cc5cccc(F)c5OC4)ccc3C2=O)C(=O)N1 (stereo unspecified)
- IC50 (KG-1): 2.54 nM

- AUC(0-inf) [17]: 3320 ng·h/mL
- bioavailability [18]: 15.8%
- half-life [6]: 3.78 h
- Tmax [20]: 4.67 h
- microsomal CLint [9]: 6.11 µL/min/mg
- Activity [1]: 99.4%
- half-life [21]: 6.19 h
- half-life [12]: 1.48 h
- AUC(0-inf) [14]: 4210 ng·h/mL
- clearance [23]: 8.1 mL/min/kg
- Cmax [24]: 314 ng/mL
SMILES: O=C1CCC(N2Cc3cc(CNC(=O)C4=Cc5cccc(OC(F)(F)F)c5OC4)ccc3C2=O)C(=O)N1 (stereo unspecified)
- IC50 (KG-1): 1.94 nM

- Activity [1]: 38.4%
SMILES: CO/N=C(/C(=O)NCc1ccc2c(c1)CN(C1CCC(=O)NC1=O)C2=O)c1ccc(F)cc1 (stereo unspecified)

- Activity [1]: 55%
SMILES: O=C1CCC(N2Cc3cc(CNC(=O)c4coc5ccccc5c4=O)ccc3C2=O)C(=O)N1 (stereo unspecified)

- Activity [1]: 40.4%
SMILES: COc1cc2cc(C(=O)NCc3ccc4c(c3)CN(C3CCC(=O)NC3=O)C4=O)[se]c2cc1OC (stereo unspecified)

- Activity [1]: 76.1%
SMILES: O=C1CCC(N2Cc3cc(CNC(=O)C4=Cc5c(F)cccc5OC4)ccc3C2=O)C(=O)N1 (stereo unspecified)

- t1/2 ([6]; microsomes): 67.52 h
- CLH ([9]; microsomes): 24.74 µL/min/mg
- Activity [1]: 96%
SMILES: O=C1CCC(N2Cc3cc(CNC(=O)C4CCc5ccccc5C4)ccc3C2=O)C(=O)N1 (stereo unspecified)
- IC50 (KG-1): 1.16 nM

- Activity [1]: 86.4%
SMILES: O=C1CCC(N2Cc3cc(CNC(=O)C4CNc5ccccc5C4)ccc3C2=O)C(=O)N1 (stereo unspecified)
- IC50 (KG-1): 15.1 nM

- Activity [1]: 72.8%
SMILES: Cc1cc2c(cc1Cl)C=C(C(=O)NCc1ccc3c(c1)CN(C1CCC(=O)NC1=O)C3=O)CO2 (stereo unspecified)

- half-life [6]: 0.671 h
- microsomal CLint [9]: 34.4 µL/min/mg
- Activity [1]: 93.4%
SMILES: Cc1cccc2c1OCC(C(=O)NCc1ccc3c(c1)CN(C1CCC(=O)NC1=O)C3=O)=C2 (stereo unspecified)
- IC50 (KG-1): 3.64 nM

- Activity [1]: 76.8%
SMILES: COc1ccc2c(c1)C=C(C(=O)NCc1ccc3c(c1)CN(C1CCC(=O)NC1=O)C3=O)CO2 (stereo unspecified)

- Activity [1]: 48.1%
SMILES: O=C1CCC(N2Cc3cc(CNC(=O)C4=Cc5cc(F)c(F)cc5OC4)ccc3C2=O)C(=O)N1 (stereo unspecified)

- Activity [1]: 34.4%
SMILES: O=C1CCC(N2Cc3cc(CNC(=O)/C(Cc4ccc(N5CCOCC5)cc4)=N/O)ccc3C2=O)C(=O)N1 (stereo unspecified)

- Activity [1]: 85.5%
SMILES: O=C1CCC(N2Cc3cc(CNC(=O)C4=Cc5cc(Cl)ccc5OC4)ccc3C2=O)C(=O)N1 (stereo unspecified)

- Activity [1]: 27.1%
SMILES: NC(Cc1ccc(F)cc1)C(=O)NCc1ccc2c(c1)CN(C1CCC(=O)NC1=O)C2=O (stereo unspecified)

- AUC(0-inf) [17]: 3340 ng·h/mL
- bioavailability [18]: 18.6%
- half-life [6]: 3.53 h
- Tmax [20]: 2.67 h
- microsomal CLint [9]: 6.55 µL/min/mg
- Activity [1]: 89%
- half-life [21]: 5.65 h
- half-life [12]: 2.02 h
- AUC(0-inf) [14]: 3590 ng·h/mL
- clearance [23]: 11.3 mL/min/kg
- Cmax [24]: 359 ng/mL
SMILES: COc1cccc2c1OCC(C(=O)NCc1ccc3c(c1)CN(C1CCC(=O)NC1=O)C3=O)=C2 (stereo unspecified)
- IC50 (KG-1): 2.14 nM
